# The source made the active and inactive calls. Rule as the data show it, for most assays here: actives have a measured IC50 and inactives only a lower limit.
# Assays:
# [1] = target: Dual specificity tyrosine-phosphorylation-regulated kinase 1A (Rattus norvegicus, UniProt Q63470); assay type: biochemical, Homo sapiens
# [2] = target: Dual specificity protein kinase CLK1 (Homo sapiens, UniProt P49759); assay: inhibition of human CLK1 activity – biochemical, cherry-picked samples, selectivity assay for Dyrk1A inhibitor project, dose response (AID 588811)
# Chain of Dual specificity protein kinase CLK1 (P49759 whole entry): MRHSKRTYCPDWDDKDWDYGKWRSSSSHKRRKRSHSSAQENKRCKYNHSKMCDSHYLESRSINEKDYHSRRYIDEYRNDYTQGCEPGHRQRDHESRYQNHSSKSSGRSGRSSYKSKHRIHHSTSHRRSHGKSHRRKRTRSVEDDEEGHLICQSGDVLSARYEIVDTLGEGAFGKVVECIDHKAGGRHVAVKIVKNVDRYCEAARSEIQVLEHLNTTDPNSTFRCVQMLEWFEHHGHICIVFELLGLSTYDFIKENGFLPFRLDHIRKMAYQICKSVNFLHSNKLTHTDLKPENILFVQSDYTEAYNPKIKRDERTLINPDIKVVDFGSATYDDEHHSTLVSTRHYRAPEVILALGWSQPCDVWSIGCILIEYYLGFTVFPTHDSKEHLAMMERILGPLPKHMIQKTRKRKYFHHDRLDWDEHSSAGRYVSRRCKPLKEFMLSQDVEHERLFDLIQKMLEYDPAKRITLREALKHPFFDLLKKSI
# [3] = target: T1, Sentrin-specific protease 7 (Homo sapiens, UniProt Q9BQF6); assay: inhibition of human SENP7 cleavage activity – biochemical, luminescence, SAR follow-up (AID 504497); assay type: functional
# T1 sequence (Q9BQF6 whole entry): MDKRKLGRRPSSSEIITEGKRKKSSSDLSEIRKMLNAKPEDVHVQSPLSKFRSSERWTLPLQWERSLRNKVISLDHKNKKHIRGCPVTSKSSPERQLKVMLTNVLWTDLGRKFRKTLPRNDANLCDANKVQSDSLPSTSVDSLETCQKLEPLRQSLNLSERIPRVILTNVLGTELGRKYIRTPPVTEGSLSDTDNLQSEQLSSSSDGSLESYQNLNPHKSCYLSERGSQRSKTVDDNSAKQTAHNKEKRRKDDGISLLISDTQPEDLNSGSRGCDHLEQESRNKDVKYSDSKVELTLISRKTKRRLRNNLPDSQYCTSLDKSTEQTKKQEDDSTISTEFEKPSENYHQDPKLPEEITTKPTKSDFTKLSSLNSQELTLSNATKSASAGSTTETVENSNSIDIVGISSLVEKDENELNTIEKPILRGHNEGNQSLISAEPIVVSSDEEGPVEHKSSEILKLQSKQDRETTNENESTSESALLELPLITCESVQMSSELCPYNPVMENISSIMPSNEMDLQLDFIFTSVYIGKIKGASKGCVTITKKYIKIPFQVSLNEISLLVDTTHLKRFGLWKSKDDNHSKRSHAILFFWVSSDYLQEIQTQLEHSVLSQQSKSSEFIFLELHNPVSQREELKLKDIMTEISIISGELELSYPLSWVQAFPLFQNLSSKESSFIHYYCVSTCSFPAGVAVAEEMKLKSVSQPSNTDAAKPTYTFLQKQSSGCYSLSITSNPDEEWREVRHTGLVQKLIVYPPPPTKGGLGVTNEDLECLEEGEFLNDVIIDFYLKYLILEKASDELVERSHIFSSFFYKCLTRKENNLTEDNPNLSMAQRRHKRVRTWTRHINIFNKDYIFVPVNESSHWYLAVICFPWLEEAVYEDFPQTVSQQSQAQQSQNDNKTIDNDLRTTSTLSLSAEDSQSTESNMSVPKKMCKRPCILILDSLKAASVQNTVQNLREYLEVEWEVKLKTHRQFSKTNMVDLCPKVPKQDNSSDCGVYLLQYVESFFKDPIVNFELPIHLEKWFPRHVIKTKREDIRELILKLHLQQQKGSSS
# [4] = target: T2, Sentrin-specific protease 6 (Homo sapiens, UniProt Q9GZR1); assay: SAR Analysis of small molecule inhibitors of Sentrin-specific protease 6 (SENP6) using a Luminescent assay. [Related pubchem assays (depositor defined):AID2582, AID2599]; assay type: functional
# T2 sequence (Q9GZR1 whole entry): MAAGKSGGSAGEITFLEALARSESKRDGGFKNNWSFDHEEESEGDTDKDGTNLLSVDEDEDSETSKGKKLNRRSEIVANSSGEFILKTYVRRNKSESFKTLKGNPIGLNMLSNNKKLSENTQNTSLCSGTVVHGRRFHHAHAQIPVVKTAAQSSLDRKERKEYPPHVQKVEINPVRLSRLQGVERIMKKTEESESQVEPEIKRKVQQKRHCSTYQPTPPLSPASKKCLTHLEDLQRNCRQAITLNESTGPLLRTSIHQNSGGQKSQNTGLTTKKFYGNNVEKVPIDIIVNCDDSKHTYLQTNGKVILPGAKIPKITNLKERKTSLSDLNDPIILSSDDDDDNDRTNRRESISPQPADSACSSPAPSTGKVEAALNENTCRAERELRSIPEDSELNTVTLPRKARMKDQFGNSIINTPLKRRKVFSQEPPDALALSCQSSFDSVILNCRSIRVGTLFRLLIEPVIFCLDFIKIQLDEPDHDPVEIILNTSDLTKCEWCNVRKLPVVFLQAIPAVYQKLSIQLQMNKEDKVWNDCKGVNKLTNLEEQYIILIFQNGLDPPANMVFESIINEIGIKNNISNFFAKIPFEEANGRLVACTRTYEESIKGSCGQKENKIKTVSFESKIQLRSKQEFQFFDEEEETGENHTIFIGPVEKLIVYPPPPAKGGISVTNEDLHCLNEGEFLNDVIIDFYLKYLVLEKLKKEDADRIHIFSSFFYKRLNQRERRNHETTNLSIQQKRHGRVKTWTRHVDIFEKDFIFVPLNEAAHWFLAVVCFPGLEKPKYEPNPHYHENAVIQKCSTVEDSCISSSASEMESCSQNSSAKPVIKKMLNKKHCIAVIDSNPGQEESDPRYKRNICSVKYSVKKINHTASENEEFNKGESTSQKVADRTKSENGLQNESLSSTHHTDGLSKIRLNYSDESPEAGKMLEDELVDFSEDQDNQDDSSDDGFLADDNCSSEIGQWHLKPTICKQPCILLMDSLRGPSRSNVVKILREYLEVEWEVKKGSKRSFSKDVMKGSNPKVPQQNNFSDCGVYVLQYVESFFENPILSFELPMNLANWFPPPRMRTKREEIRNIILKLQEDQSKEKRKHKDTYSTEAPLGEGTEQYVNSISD
# [5] = target: T3, Sentrin-specific protease 8 (Homo sapiens, UniProt Q96LD8); assay: inhibition of sentrin protease 8 – biochemical, luminescence, set 2, SAR follow-up (AID 588601); assay type: functional
# T3 sequence (Q96LD8 whole entry): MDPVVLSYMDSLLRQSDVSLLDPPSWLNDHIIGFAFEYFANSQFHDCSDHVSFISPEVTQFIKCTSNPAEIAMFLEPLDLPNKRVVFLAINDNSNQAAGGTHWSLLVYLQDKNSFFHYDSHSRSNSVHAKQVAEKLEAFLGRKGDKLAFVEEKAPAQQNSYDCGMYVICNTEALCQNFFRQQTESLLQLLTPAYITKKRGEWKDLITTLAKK
# Caspase-3 [6] = target: T4, Caspase-3 (Homo sapiens, UniProt P42574); assay: SAR Analysis of small molecule inhibitors of Sentrin-specific proteases (SENPs) using a Caspase-3 Selectivity assay. [Related pubchem assays (depositor defined):AID2540, AID2599, AID434973, AID489001]; assay type: functional
# T4 sequence (P42574 whole entry): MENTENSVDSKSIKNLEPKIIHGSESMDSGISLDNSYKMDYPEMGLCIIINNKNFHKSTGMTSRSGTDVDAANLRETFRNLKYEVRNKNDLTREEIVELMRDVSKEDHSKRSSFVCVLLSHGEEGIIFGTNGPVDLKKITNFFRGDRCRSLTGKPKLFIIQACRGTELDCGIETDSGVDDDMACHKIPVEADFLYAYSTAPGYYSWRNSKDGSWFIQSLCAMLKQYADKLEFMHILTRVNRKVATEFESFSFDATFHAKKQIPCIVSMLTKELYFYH
# Caspase-3 [7] = target: T4, Caspase-3; assay: inhibition of recombinant caspase-3 activity – biochemical, luminescence, set 2, selectivity assay for SENP protease inhibitor project, SAR follow-up (AID 588599); assay type: functional
# [8] = target: T2, Sentrin-specific protease 6; assay: inhibition of human SENP6 catalytic domain – biochemical, luminescence, set 2, SAR follow-up (AID 588598); assay type: functional
# [9] = target: T3, Sentrin-specific protease 8; assay: inhibition of human SENP8 cleavage activity – biochemical, luminescence, SAR follow-up (AID 504501); assay type: functional
# [10] = target: T1, Sentrin-specific protease 7; assay: inhibition of human SENP7 cleavage activity – biochemical, luminescence, set 2, SAR follow-up (AID 588600); assay type: functional
# [11] = target: T5, Neuropeptides B/W receptor type 1 (Homo sapiens, UniProt P48145); assay: human NPBW1 receptor blockade, IC50 – cell-based, fluorescence, dose response, set 6, late-stage follow-up (AID 588583); assay type: functional
# T5 sequence (P48145 whole entry): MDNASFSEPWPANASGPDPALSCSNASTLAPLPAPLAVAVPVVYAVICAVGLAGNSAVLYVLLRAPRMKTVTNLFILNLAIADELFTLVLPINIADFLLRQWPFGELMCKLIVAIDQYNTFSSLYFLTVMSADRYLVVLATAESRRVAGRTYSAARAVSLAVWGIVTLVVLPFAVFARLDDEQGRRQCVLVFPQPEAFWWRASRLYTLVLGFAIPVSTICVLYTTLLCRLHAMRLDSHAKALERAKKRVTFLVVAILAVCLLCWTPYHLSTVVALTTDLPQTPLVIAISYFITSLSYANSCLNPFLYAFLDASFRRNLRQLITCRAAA
# [12] = target: Melanin-concentrating hormone receptor 1 (Homo sapiens, UniProt Q99705); assay: Late-stage fluorescence-based counterscreen for antagonists of the G-protein coupled receptor 7 (GPR7): cell-based dose response assay to identify antagonists of the melanin-concentrating hormone receptor 1 (MCHR1) Set 6.; assay type: functional
# Chain of Melanin-concentrating hormone receptor 1 (Q99705 whole entry): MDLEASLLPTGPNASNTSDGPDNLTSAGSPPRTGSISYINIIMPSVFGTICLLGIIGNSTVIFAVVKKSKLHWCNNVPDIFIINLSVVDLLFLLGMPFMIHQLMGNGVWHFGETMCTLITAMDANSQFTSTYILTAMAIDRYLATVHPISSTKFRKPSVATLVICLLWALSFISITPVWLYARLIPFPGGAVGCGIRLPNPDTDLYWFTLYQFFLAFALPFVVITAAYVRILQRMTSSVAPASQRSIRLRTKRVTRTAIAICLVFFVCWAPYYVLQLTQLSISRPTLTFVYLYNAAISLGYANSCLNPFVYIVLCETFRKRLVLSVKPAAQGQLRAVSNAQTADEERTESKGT
IC50 (Caspase-3 [7]),IC50 [8],IC50 [10],Structure (SMILES),IC50 [5],other results
,,,COc1cccc(Nc2ncnc3ccccc23)c1,,AC50 [1]: 4910 nM (active); AC50 [2]: 3940 nM (active)
1010 nM (active),1490 nM (active),1540 nM (active),O=C(Nc1nc2ccccc2s1)c1nccs1,1550 nM (active),IC50 [3]: 1400 nM (active); IC50 [4]: 2100 nM (active); IC50 (Caspase-3 [6]): 900 nM (active); IC50 [9]: 2100 nM (active)
> 99000 nM (inactive),> 99000 nM (inactive),> 99000 nM (inactive),CCN(C(=O)c1cc(S(=O)(=O)N(CC)CC)ccc1C)c1nc2ccccc2s1,> 99000 nM (inactive),
,,,Cc1cc(C(C#N)c2c(Cl)cnn(Cc3cccc4ccccc34)c2=O)on1 (stereo unspecified),,IC50 [11]: 136 nM (active); IC50 [12]: 136 nM (active)
